{"source": "paper PMC7230232", "about": "“Secondary Metabolites from the Culture of the Marine-derived Fungus Paradendryphiella salina PC 362H and Evaluation of the Anticancer Activity of Its Metabolite Hyalodendrin” (Marine Drugs, 2020)", "key": {"MCF7-Sh-WISP2 cells [1]": {"system": "MCF7-Sh-WISP2 cells", "assay": "MTT cell viability assay, MCF7-Sh-WISP2", "assay_type": "cell-based, human", "conditions": "for IC50: Homo sapiens", "experimental": "(§1) Cellular viability was determined by the MTT (methylthiazolyldiphenyl-tetrazolium bromide) assay. Briefly, cells were exposed to the indicated concentrations of crude extracts or compounds 1–4 for five doubling times and then incubated for 3 h at 37 °C with MTT. Formazan crystals were then dissolved in DMSO and optical density measured at 570 nm in a microplate reader. The half-maximal inhibitory concentration (IC50) was determined. Values given for crude extracts are averages of at least two experiments done in duplicate. IC50 values calculated for the four isolated compounds and the commercially available 4-hydroxy-tamoxifen (Sigma-Aldrich) are averages of at least three experiments done in duplicate."}, "MDA-MB-231": {"system": "MDA-MB-231", "assay": "MTT cell viability assay, MDA-MB-231", "assay_type": "cell-based", "conditions": "Homo sapiens, breast, mesenchymal, invasive", "experimental": "as §1"}, "SW48": {"system": "SW48", "assay": "MTT cell viability assay, SW48", "assay_type": "cell-based", "conditions": "Homo sapiens, colon", "experimental": "as §1"}, "DLD1": {"system": "DLD1", "assay": "MTT cell viability assay, DLD1", "assay_type": "cell-based", "conditions": "Homo sapiens, DLD-1; colon", "experimental": "as §1"}, "HT29 5FU": {"system": "HT29 5FU", "assay": "MTT cell viability assay, HT29 5FU", "assay_type": "cell-based", "conditions": "Homo sapiens, HT-29; colon; 5-fluorouracil resistant", "experimental": "as §1"}, "HT29 oxa": {"system": "HT29 oxa", "assay": "MTT cell viability assay, HT29 oxa", "assay_type": "cell-based", "conditions": "Homo sapiens, HT-29; colon; oxaliplatin resistant", "experimental": "as §1"}, "HT29 SN-38": {"system": "HT29 SN-38", "assay": "MTT cell viability assay, HT29 SN-38", "assay_type": "cell-based", "conditions": "Homo sapiens, HT-29; colon; SN-38 resistant", "experimental": "as §1"}, "HCT116": {"system": "HCT116", "assay": "MTT cell viability assay, HCT116", "assay_type": "cell-based", "conditions": "Homo sapiens, HCT-116; colon", "experimental": "as §1"}, "HCT116 5FU": {"system": "HCT116 5FU", "assay": "MTT cell viability assay, HCT116 5FU", "assay_type": "cell-based", "conditions": "Homo sapiens, HCT-116; colon; 5-fluorouracil resistant", "experimental": "as §1"}, "HCT116 oxa": {"system": "HCT116 oxa", "assay": "MTT cell viability assay, HCT116 oxa", "assay_type": "cell-based", "conditions": "Homo sapiens, HCT-116; colon; oxaliplatin resistant", "experimental": "as §1"}, "LS513": {"system": "LS513", "assay": "MTT cell viability assay, LS513", "assay_type": "cell-based", "conditions": "Homo sapiens, LS-513; colon", "experimental": "as §1"}, "RKO": {"system": "RKO", "assay": "MTT cell viability assay, RKO", "assay_type": "cell-based", "conditions": "Homo sapiens, colon", "experimental": "as §1"}, "LS174T": {"system": "LS174T", "assay": "MTT cell viability assay, LS174T", "assay_type": "cell-based", "conditions": "Homo sapiens, colon", "experimental": "as §1"}, "SW480": {"system": "SW480", "assay": "MTT cell viability assay, SW480", "assay_type": "cell-based", "conditions": "Homo sapiens, colon", "experimental": "as §1"}, "C19": {"system": "C19", "assay": "MTT cell viability assay, C19 immortalized fibroblasts", "assay_type": "cell-based", "conditions": "Homo sapiens, Fibroblast; normal; fibroblastic", "experimental": "as §1"}, "[2]": {"molecular_target": "T1, thioredoxin system (Trr1+Trx1) (Saccharomyces cerevisiae, UniProt P22217)", "T1 construct": "made in house", "T1 sequence (P22217 whole entry)": "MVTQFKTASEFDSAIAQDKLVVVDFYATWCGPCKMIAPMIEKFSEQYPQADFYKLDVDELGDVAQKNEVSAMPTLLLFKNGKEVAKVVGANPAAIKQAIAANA", "assay": "In vitro reduction by the reconstituted thioredoxin system (NADPH consumption)", "assay_type": "biochemical", "conditions": "versus ACN control", "experimental": "Thioredoxin 1 (Trx1) and NADPH-dependent thioredoxin reductase (Trr1) from Saccharomyces cerevisiae were cloned and produced as described previously. Thioredoxin activity was measured spectrophotometrically (Uvikon XS; Secomam) in 1 mL cuvette by following NADPH consumption at 340 nm over 2 min. The reaction was performed in 100 µM NADPH, 246 nM of Trr1 in 30 mM Tris-HCl buffer (pH 7.9) and in the presence or not of 65 nM of Trx1. The reaction was initiated by adding 10 µL of 50 mM of 3 in acetonitrile or 10 µL of acetonitrile (ACN, Control experiment). For each condition, NADPH consumption experiments were performed in triplicate and results were represented as the mean ± SD. The significance of the results was evaluated by Student’s t-test."}, "MCF7-Sh-WISP2 cells [3]": {"system": "MCF7-Sh-WISP2 cells", "assay": "Intracellular signaling array and immunoblotting", "assay_type": "cell-based, human", "experimental": "MCF7-Sh-WISP2 cells were treated for 48 h with 2.8 µM of 3 (corresponding to 3.8 × 10^−5 nmol of drug per cell), harvested and lysed on ice for 5 min with 0.5 mL of cell lysis buffer containing a cocktail of protease inhibitors. The lysates were centrifuged at 14,000 g for 1 min at 4 °C. Intracellular signaling molecules were detected using a PathScan® intracellular signaling array kit (# 7323, Cell Signaling Technology) according to the manufacturer’s procedure. The chemiluminescent images of the slide were captured with the Chemidoc system (Biorad).\n(§2) MCF7-Sh-WISP2 cells were incubated for 72 h at 37 °C with 2.4 µM of 3 (corresponding to 3.8 × 10^−5 nmol of drug per cell). Cells were then washed twice with Phosphate-Buffer Saline (PBS) 1X and lysed for 30 min in RIPA buffer (150 mM NaCl, 1.0% IGEPAL® CA-630, 0.5% sodium deoxycholate, 0.1% SDS, 50 mM Tris, pH 8.0). Proteins (20 µg) were resolved on sodium dodecyl sulfate polyacrylamide gel (SDS/PAGE) (12%) and blotted onto nitrocellulose membranes (Bio-Rad). […] Antigens were detected using an enhanced chemiluminescence kit (Biorad) using the Chemidoc system (Biorad). Protein quantitation was calculated using Image Lab software developed by Bio-Rad."}, "MCF7-Sh-WISP2 cells [4]": {"system": "MCF7-Sh-WISP2 cells", "assay": "Human cell stress array and immunoblotting", "assay_type": "cell-based", "experimental": "MCF7-Sh-WISP2 cells were treated for 48 h with 5.7 µM of 3 (corresponding to 3.8 × 10^−5 nmol of drug per cell), harvested and lysed for 30 min on ice with 0.4 mL of cell lysis buffer containing a cocktail of protease inhibitors. The lysates were centrifuged at 14,000 g for 5 min at 4 °C. Human cell stress proteins were detected using the Proteome Profiler human cell stress array kit (# ARY018, R&D systems) according to the manufacturer’s instructions. The chemiluminescent images of the slide were captured with the Chemidoc system (Biorad).\nas §2"}, "MCF7-Sh-WISP2 cells [5]": {"system": "MCF7-Sh-WISP2 cells", "assay": "γ-H2AX foci immunofluorescence", "assay_type": "cell-based, human", "conditions": "1 µM"}, "MCF7-Sh-WISP2 cells [6]": {"system": "MCF7-Sh-WISP2 cells", "assay": "Cell cycle progression by propidium iodide flow cytometry", "assay_type": "cell-based, human", "conditions": "380 nM", "experimental": "Figure S5. Cell cycle progression of MCF7-Sh-WISP2 cells in response to compound 3 exposure.\nAfter treatment with 380 nM of 3 (hyalodendrin) (corresponding to 1.9 10-5 nmol of drug per cell), cells were collected, counted and fixed with 70 % ethanol. Cells were then stained with 40 μg/mL propidium iodide (PI) (Biolegend) containing RNaseA (100 µg/mL), prior analysis on a Gallios flow cytometer (Beckman Coulter, Inc, Villepinte, France). The results were analyzed using the Venturi One V6 software (Applied Cytometry).\n(1 picture or pasted object on this page, not shown here)"}}, "note": "Values joined by “and” are separate entries in the source; they are usually repeats but may differ in a detail not shown here. Equal values may be shown once. Read-outs that look alike come from different tables or passages of the source."}
{"molecule": "CN1C(=O)[C@@]2(Cc3ccccc3)SS[C@]1(CO)C(=O)N2C", "note": "[Compound 3, (3R, 6R) Hyalodendrin]", "values": [{"measurement": "IC50", "setting": "MCF7-Sh-WISP2 cells [1]; read-out: IC50 MC7-Sh-WISP2", "result": "142 ± 3", "unit": "nM"}, {"measurement": "IC50", "setting": "MCF7-Sh-WISP2 cells [1]; read-out: IC50 MCF7-Sh-WISP2", "result": "0.046 µg/mL and 140 nM"}, {"measurement": "IC50 for MCF7-Sh-WISP2 expressed as amount of 3 per cell", "setting": "MCF7-Sh-WISP2 cells [1]; corresponds to IC50 of 140 nM in the viability assay", "result": "3.8 × 10^−5 nmol of 3 per cell"}, {"measurement": "IC50", "setting": "MDA-MB-231", "result": "132 ± 13.4", "unit": "nM"}, {"measurement": "IC50", "setting": "SW48", "result": "149 ± 15.5", "unit": "nM"}, {"measurement": "IC50", "setting": "DLD1", "result": "40 ± 5.8", "unit": "nM"}, {"measurement": "IC50", "setting": "HT29 5FU", "result": "147 ± 10.2", "unit": "nM"}, {"measurement": "IC50", "setting": "HT29 oxa", "result": "142 ± 2.6", "unit": "nM"}, {"measurement": "IC50", "setting": "HT29 SN-38", "result": "93.8 ± 13.6", "unit": "nM"}, {"measurement": "IC50", "setting": "HCT116", "result": "48 ± 9.3", "unit": "nM"}, {"measurement": "IC50", "setting": "HCT116 5FU", "result": "72 ± 10.9", "unit": "nM"}, {"measurement": "IC50", "setting": "HCT116 oxa", "result": "25.7 ± 4.2", "unit": "nM"}, {"measurement": "IC50", "setting": "LS513", "result": "78 ± 9.3", "unit": "nM"}, {"measurement": "IC50", "setting": "RKO", "result": "74.3 ± 1.9", "unit": "nM"}, {"measurement": "IC50", "setting": "LS174T", "result": "158 ± 13", "unit": "nM"}, {"measurement": "IC50", "setting": "SW480", "result": "164 ± 11", "unit": "nM"}, {"measurement": "IC50", "setting": "C19", "result": "252 ± 20.5", "unit": "nM"}, {"measurement": "NADPH consumption increase", "setting": "[2]", "result": "~14", "unit": "folds"}, {"measurement": "phosphorylation of p53 on serine 15", "setting": "MCF7-Sh-WISP2 cells [3]; 2.8 µM for 48 h (array), 2.4 µM for 72 h (Western blot)", "result": "increased phosphorylation"}, {"measurement": "PRAS40 protein expression levels", "setting": "MCF7-Sh-WISP2 cells [3]; Western blot, 2.4 µM for 72 h", "result": "general decrease"}, {"measurement": "cleavage of PARP or caspase-3", "setting": "MCF7-Sh-WISP2 cells [3]; signaling array", "result": "no cleavage"}, {"measurement": "phosphorylation of p53 on serine 46", "setting": "MCF7-Sh-WISP2 cells [4]; 5.7 µM for 48 h (array), 2.4 µM for 72 h (Western blot)", "result": "decreased phosphorylation"}, {"measurement": "BAX expression", "setting": "MCF7-Sh-WISP2 cells [4]; Western blot, 2.4 µM for 72 h", "result": "decreased expression"}, {"measurement": "expression levels of HSP60 and HSP70 proteins", "setting": "MCF7-Sh-WISP2 cells [4]; array, 5.7 µM for 48 h", "result": "marked decrease"}, {"measurement": "p21 protein expression levels", "setting": "MCF7-Sh-WISP2 cells [4]; array, 5.7 µM for 48 h", "result": "no increase"}, {"measurement": "γ-H2AX signal", "setting": "MCF7-Sh-WISP2 cells [5]; 24 and 48 h", "result": "punctuated labeling in their nucleus"}, {"measurement": "γ-H2AX signal", "setting": "MCF7-Sh-WISP2 cells [5]; 3 h", "result": "no γ-H2AX signal could be detected"}, {"measurement": "cell cycle progression", "setting": "MCF7-Sh-WISP2 cells [6]", "result": "no significant changes"}]}
